Measurements taken from ChEMBL document CHEMBL1201862, “PubChem BioAssay data set” (2004).
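Values below derive from 48-hour exposures of cells grown in 96-well plates, with endpoints linearly interpolated between the two concentrations bracketing the appropriate inhibition level. Here, GI50 denotes the concentration required for 50% inhibition of growth.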 Active and inactive are the calls of the source. Cut-off read from the data, not from the text of the source: active = GI50 up to about 1.1 µM and inactive = higher.

What was measured:
Assay in all cases: NCI-60 cell line screen, 48 h
[1] = system: 786-0
[2] = system: A549
[3] = system: ACHN
[4] = system: CAKI-1
[5] = system: CCRF-CEM
[6] = system: COLO 205
[7] = system: DLD-1
[8] = system: DMS-114
[9] = system: DMS-273
[10] = system: EKVX
[11] = system: HCC 2998
[12] = system: HCT-116
[13] = system: HCT-15
[14] = system: HL-60
[15] = system: HOP-18
[16] = system: HOP-62
[17] = system: HOP-92
[18] = system: HT-29
[19] = system: IGROV-1
[20] = system: K562
[21] = system: KM-20L2
[22] = system: KM12
[23] = system: LXFL 529
[24] = system: M14
[25] = system: M19-MEL
[26] = system: MOLT-4
[27] = system: Malme-3M
[28] = system: NCI-H226
[29] = system: NCI-H23
[30] = system: NCI-H460
[31] = system: NCI-H522
[32] = system: OVCAR-3
[33] = system: OVCAR-4
[34] = system: OVCAR-8
[35] = system: RPMI-8226
[36] = system: RXF 393
[37] = system: SF-268
[38] = system: SF-295
[39] = system: SF-539
[40] = system: SK-MEL-28
[41] = system: SK-MEL-2
[42] = system: SN12C
[43] = system: SNB-19
[44] = system: SNB-75
[45] = system: SR
[46] = system: SW-620
[47] = system: TK-10
[48] = system: U-251
[49] = system: UACC-257
[50] = system: UACC-62
[51] = system: UO-31
[52] = system: XF498
[53] = system: LOX IMVI
[54] = system: OVCAR-5
[55] = system: SK-MEL-5
[56] = system: SK-OV-3
[57] = system: SNB-78
[58] = system: BT-549
[59] = system: DU-145
[60] = system: Hs-578T
[61] = system: NCI/ADR-RES
[62] = system: PC-3
[63] = system: T47D

Measured: GI50

CC(=O)NC(CCCNC(=O)N(CCCl)N=O)C(=O)NCc1ccccc1 (stereo unspecified)
inactive: [1] 6.87 µM | [2] 69.2 µM | [3] 38.9 µM | [4] > 100 µM | [5] 46.3 µM | [6] > 100 µM | [7] 58.6 µM | [8] > 100 µM | [9] > 100 µM | [10] > 100 µM | [11] > 100 µM | [12] > 100 µM | [14] 24 µM | [15] > 100 µM | [16] 40 µM | [17] > 100 µM | [18] > 100 µM | [19] 59.7 µM | [20] > 100 µM | [21] > 100 µM | [22] > 100 µM | [23] > 100 µM | [24] > 100 µM | [25] > 100 µM | [26] 38.5 µM | [27] > 100 µM | [28] > 100 µM | [29] > 100 µM | [30] 2.32 µM | [31] > 100 µM | [32] > 100 µM | [33] > 100 µM | [34] > 100 µM | [35] > 100 µM | [36] > 100 µM | [37] 6.53 µM | [38] 27.9 µM | [39] 11.7 µM | [40] > 100 µM | [41] > 100 µM | [42] 91.4 µM | [43] 22.6 µM | [44] 9.71 µM | [45] 35.6 µM | [46] > 100 µM | [47] > 100 µM | [48] 27.6 µM | [49] > 100 µM | [50] > 100 µM | [51] > 100 µM | [52] > 100 µM
> 100 µM: [13]

S=C(N/N=C/c1ccccc1)NC1CC(c2ccccc2)Oc2ccccc21 (stereo unspecified)
inactive: [1] 67 µM | [2] 26.8 µM | [3] > 10 µM | [4] 28.4 µM | [5] > 10 µM | [6] > 100 µM | [7] 91.8 µM | [8] 43.2 µM | [9] 66.7 µM | [10] 18.8 µM | [11] > 100 µM | [12] 72.1 µM | [17] 2.17 µM | [18] 53 µM | [19] > 100 µM | [20] 15.2 µM | [22] > 100 µM | [53] > 100 µM | [23] > 100 µM | [24] 15.3 µM | [25] > 100 µM | [26] > 10 µM | [27] 68.1 µM | [28] > 100 µM | [29] 25.8 µM | [30] 23.1 µM | [31] > 100 µM | [32] 8.95 µM | [33] 16.9 µM | [54] > 100 µM | [34] 48 µM | [37] 51.4 µM | [38] 16.1 µM | [39] 38.3 µM | [40] 70 µM | [41] > 100 µM | [55] 11.1 µM | [56] 11.7 µM | [42] > 100 µM | [43] 36.5 µM | [44] 7.16 µM | [57] 22 µM | [45] > 100 µM | [46] > 100 µM | [47] > 10 µM | [48] 33.4 µM | [50] 48.8 µM | [51] > 100 µM | [52] 34.5 µM

CCc1ccc(NCc2cc(OC)c(OC)c(OC)c2)cc1
active: [58] < 0.01 µM | [5] 0.284 µM | [7] 0.492 µM | [8] 0.457 µM | [59] 0.716 µM | [12] 0.0998 µM | [14] 0.056 µM | [16] 0.532 µM | [18] 0.176 µM | [60] 0.261 µM | [20] 0.0845 µM | [21] 0.267 µM | [22] 0.0738 µM | [25] 0.413 µM | [26] 0.29 µM | [27] 0.232 µM | [29] 0.611 µM | [31] 0.186 µM | [61] 0.0611 µM | [32] 0.211 µM | [62] 0.305 µM | [35] 0.367 µM | [36] 0.211 µM | [38] 0.197 µM | [43] 0.522 µM | [45] < 0.0282 µM | [63] 0.302 µM | [52] 0.933 µM
0.164 µM: [13]
inactive: [3] 2.24 µM | [10] 4.2 µM | [17] 1.24 µM | [28] 3.3 µM | [33] 18.2 µM | [54] 3.02 µM
